Test results reported in PubChem BioAssay AID2060511 (Molecular Pharmacology Branch, DTP, NCI, 2025).

Tested on: 422866-222-R5-J1-PDC spheroids with HUVEC/MSC, viability
Experiment: Anticancer human tumor 422866-222-R5-J1-PDC patient-derived pancreatic adenocarcinoma cell line growth inhibition [GQUAD]
Settings: for IC50: curve of first compound; for viability, T/C: stronger effect = lower value
Procedure, shortened: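 Multi-cell-type spheroids of tumor cells with HUVEC and mesenchymal stem cells, treated with drug combinations. Concentrations descend in half-log steps from near clinical Cmax, or from 10 microM where Cmax is unknown; viability read-out.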

[1] = second compound 0.0316 µM, first compound 0.0316 µM
[2] = second compound 0.0316 µM, first compound 0.1 µM
[3] = second compound 0.0316 µM, first compound 0.316 µM
[4] = second compound 0.0316 µM, first compound 1 µM
[5] = second compound 0.0316 µM, first compound 3.16 µM
[6] = second compound 0.0316 µM, first compound 10 µM
[7] = second compound 0.1 µM, first compound 0.0316 µM
[8] = second compound 0.1 µM, first compound 0.1 µM
[9] = second compound 0.1 µM, first compound 0.316 µM
[10] = second compound 0.1 µM, first compound 1 µM
[11] = second compound 0.1 µM, first compound 3.16 µM
[12] = second compound 0.1 µM, first compound 10 µM
[13] = second compound 0.316 µM, first compound 0.0316 µM
[14] = second compound 0.316 µM, first compound 0.1 µM
[15] = second compound 0.316 µM, first compound 0.316 µM
[16] = second compound 0.316 µM, first compound 1 µM
[17] = second compound 0.316 µM, first compound 3.16 µM
[18] = second compound 0.316 µM, first compound 10 µM
[19] = second compound 1 µM, first compound 0.0316 µM
[20] = second compound 1 µM, first compound 0.1 µM
[21] = second compound 1 µM, first compound 0.316 µM
[22] = second compound 1 µM, first compound 1 µM
[23] = second compound 1 µM, first compound 3.16 µM
[24] = second compound 1 µM, first compound 10 µM
[25] = second compound 3.16 µM, first compound 0.0316 µM
[26] = second compound 3.16 µM, first compound 0.1 µM
[27] = second compound 3.16 µM, first compound 0.316 µM
[28] = second compound 3.16 µM, first compound 1 µM
[29] = second compound 3.16 µM, first compound 3.16 µM
[30] = second compound 3.16 µM, first compound 10 µM
[31] = second compound 10 µM, first compound 0.0316 µM
[32] = second compound 10 µM, first compound 0.1 µM
[33] = second compound 10 µM, first compound 0.316 µM
[34] = second compound 10 µM, first compound 1 µM
[35] = second compound 10 µM, first compound 3.16 µM
[36] = second compound 10 µM, first compound 10 µM
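Further: spheroids exposed to compounds for seven days before reading.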
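Wherever viability, T/C is given: percent viability relative to DMSO vehicle control taken as 100%.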

`C=CCn1c(=O)c2cnc(Nc3ccc(N4CCN(C)CC4)cc3)nc2n1-c1cccc(C(C)(C)O)n1` + Cc1[nH]c2ccc(F)cc2c1-c1nc2c3cccnc3c3ncccc3c2[nH]1 gave an IC50 (second compound 0.0316 µM) greater than 10000 nM, an IC50 (second compound 0.1 µM) greater than 10000 nM and an IC50 (second compound 0.316 µM) greater than 10000 nM. For the same compound, the IC50 (second compound 1 µM) was greater than 10000 nM, the IC50 (second compound 3.16 µM) was greater than 10000 nM and the IC50 (second compound 10 µM) was greater than 10000 nM. The viability, T/C [1] was 103%, the viability, T/C [2] was 110% and the viability, T/C [3] was 167%. For the same compound, the viability, T/C [4] was 125%, the viability, T/C [5] was 157% and the viability, T/C [6] was 91.9%. The viability, T/C [7] was 112%, the viability, T/C [8] was 101% and the viability, T/C [9] was 127%. It also gave a viability, T/C [10] of 146%, a viability, T/C [11] of 183% and a viability, T/C [12] of 107%. For the same compound, the viability, T/C [13] was 101%, the viability, T/C [14] was 127% and the viability, T/C [15] was 126%. For the same compound, the viability, T/C [16] was 130%, the viability, T/C [17] was 202% and the viability, T/C [18] was 112%. The viability, T/C [19] was 89.3%, the viability, T/C [20] was 122% and the viability, T/C [21] was 120%. It also gave a viability, T/C [22] of 121%, a viability, T/C [23] of 194% and a viability, T/C [24] of 122%. The viability, T/C [25] was 75.5%, the viability, T/C [26] was 74.5% and the viability, T/C [27] was 85.2%. For the same compound, the viability, T/C [28] was 117%, the viability, T/C [29] was 122% and the viability, T/C [30] was 76.9%. The viability, T/C [31] was 70.5%, the viability, T/C [32] was 51.5% and the viability, T/C [33] was 85.7%. It also gave a viability, T/C [34] of 68.5%, a viability, T/C [35] of 105% and a viability, T/C [36] of 79.3%.
Compound `C=CC(=O)N1CCN(c2nc(=O)n(-c3c(C)ccnc3C(C)C)c3nc(-c4c(O)cccc4F)c(F)cc23)C(C)C1` (stereo unspecified) + Cc1cnc(CNC(=O)c2c(=O)c3ccc(N4CCCN(C)CC4)nc3n3c2sc2ccccc23)cn1 has an IC50 (second compound 0.0316 µM) of less than 31.6 nM, an IC50 (second compound 0.1 µM) of less than 31.6 nM and an IC50 (second compound 0.316 µM) of less than 31.6 nM. For the same compound, the IC50 (second compound 1 µM) was less than 31.6 nM, the IC50 (second compound 3.16 µM) was less than 31.6 nM and the IC50 (second compound 10 µM) was less than 31.6 nM. The viability, T/C [1] was 41.2%, the viability, T/C [2] was 32.1% and the viability, T/C [3] was 28.1%. For the same compound, the viability, T/C [4] was 19.9%, the viability, T/C [5] was 33.4% and the viability, T/C [6] was 30.6%. The viability, T/C [7] was 40.4%, the viability, T/C [8] was 30.4% and the viability, T/C [9] was 26.7%. The viability, T/C [10] was 25.7%, the viability, T/C [11] was 32.6% and the viability, T/C [12] was 30.6%. It also gave a viability, T/C [13] of 36.8%, a viability, T/C [14] of 30.4% and a viability, T/C [15] of 27.2%. It also gave a viability, T/C [16] of 29%, a viability, T/C [17] of 34% and a viability, T/C [18] of 33.7%. The viability, T/C [19] was 29.3%, the viability, T/C [20] was 28.6% and the viability, T/C [21] was 30.2%. For the same compound, the viability, T/C [22] was 28.1%, the viability, T/C [23] was 35.9% and the viability, T/C [24] was 37.7%. For the same compound, the viability, T/C [25] was 32%, the viability, T/C [26] was 32.4% and the viability, T/C [27] was 29.8%. It also gave a viability, T/C [28] of 27.9%, a viability, T/C [29] of 37.3% and a viability, T/C [30] of 36.4%. It also gave a viability, T/C [31] of 30.5%, a viability, T/C [32] of 23.3% and a viability, T/C [33] of 28.9%. It also gave a viability, T/C [34] of 27.8%, a viability, T/C [35] of 33.5% and a viability, T/C [36] of 34.2%.
In the case of `CCc1c2c(nc3ccc(O)cc13)-c1cc3c(c(=O)n1C2)COC(=O)[C@]3(O)CC` + Cc1cnc(CNC(=O)c2c(=O)c3ccc(N4CCCN(C)CC4)nc3n3c2sc2ccccc23)cn1, the IC50 (second compound 0.0316 µM) is reported as 1.87 nM, the IC50 (second compound 0.1 µM) is reported as 15.9 nM and the IC50 (second compound 0.316 µM) is reported as 25.5 nM. The IC50 (second compound 1 µM) was 73.2 nM, the IC50 (second compound 3.16 µM) was 62.2 nM and the IC50 (second compound 10 µM) was 106 nM. It also gave a viability, T/C (second compound 0.0316 µM, first compound 0.000999 µM) of 56.2%, a viability, T/C (second compound 0.0316 µM, first compound 0.00316 µM) of 42.2% and a viability, T/C (second compound 0.0316 µM, first compound 0.00999 µM) of 44.1%. The viability, T/C [1] was 41.3%, the viability, T/C (second compound 0.0316 µM, first compound 0.0999 µM) was 37.7% and the viability, T/C [3] was 24.5%. It also gave a viability, T/C (second compound 0.1 µM, first compound 0.000999 µM) of 66.8%, a viability, T/C (second compound 0.1 µM, first compound 0.00316 µM) of 59.2% and a viability, T/C (second compound 0.1 µM, first compound 0.00999 µM) of 50.4%. For the same compound, the viability, T/C [7] was 46.3%, the viability, T/C (second compound 0.1 µM, first compound 0.0999 µM) was 44.9% and the viability, T/C [9] was 34.8%. For the same compound, the viability, T/C (second compound 0.316 µM, first compound 0.000999 µM) was 75.4%, the viability, T/C (second compound 0.316 µM, first compound 0.00316 µM) was 63.1% and the viability, T/C (second compound 0.316 µM, first compound 0.00999 µM) was 56.4%. It also gave a viability, T/C [13] of 47.7%, a viability, T/C (second compound 0.316 µM, first compound 0.0999 µM) of 46.6% and a viability, T/C [15] of 30.2%. It also gave a viability, T/C (second compound 1 µM, first compound 0.000999 µM) of 73.4%, a viability, T/C (second compound 1 µM, first compound 0.00316 µM) of 76% and a viability, T/C (second compound 1 µM, first compound 0.00999 µM) of 59.6%. It also gave a viability, T/C [19] of 59.4%, a viability, T/C (second compound 1 µM, first compound 0.0999 µM) of 49.3% and a viability, T/C [21] of 28.2%. The viability, T/C (second compound 3.16 µM, first compound 0.000999 µM) was 70.2%, the viability, T/C (second compound 3.16 µM, first compound 0.00316 µM) was 77.4% and the viability, T/C (second compound 3.16 µM, first compound 0.00999 µM) was 62.5%. For the same compound, the viability, T/C [25] was 55.7%, the viability, T/C (second compound 3.16 µM, first compound 0.0999 µM) was 46.5% and the viability, T/C [27] was 26.3%. For the same compound, the viability, T/C (second compound 10 µM, first compound 0.000999 µM) was 72.5%, the viability, T/C (second compound 10 µM, first compound 0.00316 µM) was 74.8% and the viability, T/C (second compound 10 µM, first compound 0.00999 µM) was 68%. It also gave a viability, T/C [31] of 60.2%, a viability, T/C (second compound 10 µM, first compound 0.0999 µM) of 54.9% and a viability, T/C [33] of 22.1%.
